In assay [1] the target is T1, Human JAK1 (Homo sapiens (Human), UniProt P23458). The assay can be described thus: In vitro kinase inhibition test, JAK1 (33P-ATP filter scintillation). The format is biochemical.
For assay [2], the system named is DBA/1J mice. The assay can be described thus: Collagen-induced arthritis (CIA) model, hind paw edema volume. Type of assay: in vivo, mouse. The conditions noted are these: 50 mg/kg oral once a day. How it is done:
2. Collagen-induced Arthritis (CIA) Model
DBA/1J mice (6 weeks old, male) were purchased from Japan SLC, Inc., and maintained under controlled lighting in a 12-hour light/dark cycle (07:00-19:00). The temperature was maintained at about 22° C., and the mice were allowed to freely have feed and drinking water.
Type II collagen (dissolved in 0.05 M acetic acid (2 mg/mL)) was kept at 4° C. prior to induction. On the first day of induction, prior to a first immunization, a complete Freund's adjuvant and type II collagen in an equal ratio were homogenized in a cooled tube using a homogenizer to obtain an emulsion of the type II collagen and the Freund's adjuvant. 0.1 mL of the emulsion was injected into mouse tails for the first immunization. […]
Therapeutic efficacy of the compounds according to embodiments was determined using a collagen-induced mouse animal model. […]
The degree of arthritic disease was determined based on the degree of paw edema obtained by measuring a volume of mouse hind paws of the experimental animals. A volume change in the hind paws was measured using a volume measuring flowmeter (Plethysmometer, Havard apparatus, USA, Cat no. 760220), wherein the volume was measured by putting the mouse hind legs into a measurement cell, from knee to paw. The volumes of both paws were measured, and a larger volume value between the two was used as a representative value. […]

The target of assay [3] is T2, Human TYK2 (Homo sapiens (Human), UniProt P29597). The assay can be described thus: In vitro kinase inhibition test, TYK2 (33P-ATP filter scintillation). The format is biochemical.
Assay [4] has as its target T3, Human JAK3 (Homo sapiens (Human), UniProt P52333). The assay can be described thus: In vitro kinase inhibition test, JAK3 (33P-ATP filter scintillation). Type of assay: biochemical.
Assay [5] concerns the target T4, Human JAK2 (Homo sapiens (Human), UniProt O60674). Description: In vitro kinase inhibition test, JAK2 (33P-ATP filter scintillation). The format is biochemical.
Assay [6] concerns the target T2, Human TYK2. The assay can be described thus: In vitro kinase inhibition test, TYK2 (33P-ATP filter scintillation). The format is biochemical. The conditions noted are these: compound at 1 uM; read-out: TYK2 kinase-phosphorylation inhibitory level (% inhibition).
The target of assay [7] is T4, Human JAK2. Description: In vitro kinase inhibition test, JAK2 (33P-ATP filter scintillation). The following applies: compound at 1 uM; read-out: JAK2 kinase-phosphorylation inhibitory level (% inhibition). Type of assay: biochemical.
The target of assay [8] is T1, Human JAK1. The assay can be described thus: In vitro kinase inhibition test, JAK1 (33P-ATP filter scintillation). Type of assay: biochemical. The conditions noted are these: compound at 1 uM; read-out: JAK1 kinase-phosphorylation inhibitory level (% inhibition).
The target of assay [9] is T3, Human JAK3. Description: In vitro kinase inhibition test, JAK3 (33P-ATP filter scintillation). Type of assay: biochemical. The following applies: compound at 1 uM; read-out: JAK3 kinase-phosphorylation inhibitory level (% inhibition).

pIC50: −log10 of the molar value.

The values below come from patent US10081635B2, “Substituted N-(pyrrolidine-3-yl)-7H-pyrrolo[2,3-D]pyrimidine-4-amine as janus kinase inhibitor” (YANG JI CHEMICAL CO., LTD., priority 2014, dated 2018).

T1 sequence (P23458 whole entry): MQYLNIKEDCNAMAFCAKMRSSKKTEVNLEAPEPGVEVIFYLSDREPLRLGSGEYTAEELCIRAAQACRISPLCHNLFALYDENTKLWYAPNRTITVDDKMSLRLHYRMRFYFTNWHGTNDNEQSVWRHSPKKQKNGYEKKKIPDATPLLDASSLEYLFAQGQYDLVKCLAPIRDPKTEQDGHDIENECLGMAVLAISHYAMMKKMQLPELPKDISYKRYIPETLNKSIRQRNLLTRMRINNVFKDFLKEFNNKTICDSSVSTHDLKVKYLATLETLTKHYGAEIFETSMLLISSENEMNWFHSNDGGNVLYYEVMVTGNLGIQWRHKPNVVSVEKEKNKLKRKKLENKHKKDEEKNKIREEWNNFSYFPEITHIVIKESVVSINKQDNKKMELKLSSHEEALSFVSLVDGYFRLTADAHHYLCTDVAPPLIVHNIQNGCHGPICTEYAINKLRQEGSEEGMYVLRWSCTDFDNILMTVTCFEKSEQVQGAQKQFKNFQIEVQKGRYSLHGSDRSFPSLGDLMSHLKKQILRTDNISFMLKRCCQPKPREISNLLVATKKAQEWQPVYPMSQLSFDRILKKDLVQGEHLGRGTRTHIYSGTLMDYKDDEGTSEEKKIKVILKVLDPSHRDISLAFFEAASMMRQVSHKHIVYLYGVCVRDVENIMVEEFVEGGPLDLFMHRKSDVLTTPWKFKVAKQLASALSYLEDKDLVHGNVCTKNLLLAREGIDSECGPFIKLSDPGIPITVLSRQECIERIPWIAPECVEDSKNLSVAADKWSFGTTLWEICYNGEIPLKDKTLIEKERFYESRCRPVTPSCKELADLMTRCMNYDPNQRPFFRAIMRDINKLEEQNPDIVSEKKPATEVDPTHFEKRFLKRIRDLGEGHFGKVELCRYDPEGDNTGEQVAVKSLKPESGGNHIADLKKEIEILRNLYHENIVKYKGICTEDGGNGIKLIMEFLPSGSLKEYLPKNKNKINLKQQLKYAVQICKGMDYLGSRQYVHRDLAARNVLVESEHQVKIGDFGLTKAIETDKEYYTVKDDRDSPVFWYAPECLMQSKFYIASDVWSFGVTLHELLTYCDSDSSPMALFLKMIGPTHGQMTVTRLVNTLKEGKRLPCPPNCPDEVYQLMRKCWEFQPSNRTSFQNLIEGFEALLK
T4 sequence (O60674 whole entry): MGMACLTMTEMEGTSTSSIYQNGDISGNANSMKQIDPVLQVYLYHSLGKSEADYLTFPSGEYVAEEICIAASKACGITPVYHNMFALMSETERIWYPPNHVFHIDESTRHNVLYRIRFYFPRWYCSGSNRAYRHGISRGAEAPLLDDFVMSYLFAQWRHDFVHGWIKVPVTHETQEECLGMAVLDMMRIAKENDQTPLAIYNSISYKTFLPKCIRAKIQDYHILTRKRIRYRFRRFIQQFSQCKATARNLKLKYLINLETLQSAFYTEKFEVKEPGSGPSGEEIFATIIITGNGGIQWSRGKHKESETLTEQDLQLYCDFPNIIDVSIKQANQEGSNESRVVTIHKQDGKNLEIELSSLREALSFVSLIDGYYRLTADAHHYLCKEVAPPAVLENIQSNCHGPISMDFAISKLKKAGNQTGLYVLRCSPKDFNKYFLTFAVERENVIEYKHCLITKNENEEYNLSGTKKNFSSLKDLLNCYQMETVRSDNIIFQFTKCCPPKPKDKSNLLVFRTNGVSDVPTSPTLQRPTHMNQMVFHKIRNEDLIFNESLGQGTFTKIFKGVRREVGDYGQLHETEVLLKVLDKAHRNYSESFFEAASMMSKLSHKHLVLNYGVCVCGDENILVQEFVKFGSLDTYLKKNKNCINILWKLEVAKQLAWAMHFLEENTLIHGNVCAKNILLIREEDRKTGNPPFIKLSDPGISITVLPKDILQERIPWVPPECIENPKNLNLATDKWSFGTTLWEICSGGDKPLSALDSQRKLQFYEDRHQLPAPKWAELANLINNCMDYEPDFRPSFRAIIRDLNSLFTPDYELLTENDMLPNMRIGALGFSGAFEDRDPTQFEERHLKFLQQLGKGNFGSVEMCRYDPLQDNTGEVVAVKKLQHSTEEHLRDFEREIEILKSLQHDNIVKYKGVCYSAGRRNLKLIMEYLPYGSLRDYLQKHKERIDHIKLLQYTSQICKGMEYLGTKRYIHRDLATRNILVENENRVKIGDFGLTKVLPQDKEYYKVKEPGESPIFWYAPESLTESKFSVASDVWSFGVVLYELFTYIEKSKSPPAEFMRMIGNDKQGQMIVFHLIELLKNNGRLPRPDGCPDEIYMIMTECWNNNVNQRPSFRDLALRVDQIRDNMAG
T2 sequence (P29597 whole entry): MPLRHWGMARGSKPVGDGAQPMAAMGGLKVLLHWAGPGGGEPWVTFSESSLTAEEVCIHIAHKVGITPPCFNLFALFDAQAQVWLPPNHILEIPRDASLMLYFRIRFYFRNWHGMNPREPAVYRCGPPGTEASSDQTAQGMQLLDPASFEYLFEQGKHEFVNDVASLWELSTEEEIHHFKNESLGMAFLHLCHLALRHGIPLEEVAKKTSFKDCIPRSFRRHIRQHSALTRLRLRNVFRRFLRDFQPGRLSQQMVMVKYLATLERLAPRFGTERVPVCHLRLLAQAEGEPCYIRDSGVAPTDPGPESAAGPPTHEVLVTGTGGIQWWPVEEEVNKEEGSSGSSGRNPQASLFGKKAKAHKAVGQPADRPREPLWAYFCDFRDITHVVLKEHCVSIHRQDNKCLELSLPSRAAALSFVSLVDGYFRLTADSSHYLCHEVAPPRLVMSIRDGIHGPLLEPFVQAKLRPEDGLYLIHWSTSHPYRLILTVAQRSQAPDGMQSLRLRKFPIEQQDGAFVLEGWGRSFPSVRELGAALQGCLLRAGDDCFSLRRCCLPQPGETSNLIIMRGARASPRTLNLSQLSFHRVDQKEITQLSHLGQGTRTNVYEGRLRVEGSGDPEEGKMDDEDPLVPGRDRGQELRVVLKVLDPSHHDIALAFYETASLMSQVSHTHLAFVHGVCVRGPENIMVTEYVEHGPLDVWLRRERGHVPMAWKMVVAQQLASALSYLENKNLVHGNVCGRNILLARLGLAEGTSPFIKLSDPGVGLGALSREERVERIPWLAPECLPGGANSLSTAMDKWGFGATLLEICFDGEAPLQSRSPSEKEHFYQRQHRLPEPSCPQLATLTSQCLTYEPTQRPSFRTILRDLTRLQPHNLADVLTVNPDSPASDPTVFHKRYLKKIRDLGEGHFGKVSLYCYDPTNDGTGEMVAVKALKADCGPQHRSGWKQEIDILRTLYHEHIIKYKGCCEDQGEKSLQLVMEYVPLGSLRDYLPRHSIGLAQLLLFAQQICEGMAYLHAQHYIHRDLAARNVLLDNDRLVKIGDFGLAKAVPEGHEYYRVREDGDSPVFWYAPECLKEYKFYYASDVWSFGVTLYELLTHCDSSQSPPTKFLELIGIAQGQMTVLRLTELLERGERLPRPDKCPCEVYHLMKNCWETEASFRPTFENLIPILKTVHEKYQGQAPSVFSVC
T3 sequence (P52333 whole entry): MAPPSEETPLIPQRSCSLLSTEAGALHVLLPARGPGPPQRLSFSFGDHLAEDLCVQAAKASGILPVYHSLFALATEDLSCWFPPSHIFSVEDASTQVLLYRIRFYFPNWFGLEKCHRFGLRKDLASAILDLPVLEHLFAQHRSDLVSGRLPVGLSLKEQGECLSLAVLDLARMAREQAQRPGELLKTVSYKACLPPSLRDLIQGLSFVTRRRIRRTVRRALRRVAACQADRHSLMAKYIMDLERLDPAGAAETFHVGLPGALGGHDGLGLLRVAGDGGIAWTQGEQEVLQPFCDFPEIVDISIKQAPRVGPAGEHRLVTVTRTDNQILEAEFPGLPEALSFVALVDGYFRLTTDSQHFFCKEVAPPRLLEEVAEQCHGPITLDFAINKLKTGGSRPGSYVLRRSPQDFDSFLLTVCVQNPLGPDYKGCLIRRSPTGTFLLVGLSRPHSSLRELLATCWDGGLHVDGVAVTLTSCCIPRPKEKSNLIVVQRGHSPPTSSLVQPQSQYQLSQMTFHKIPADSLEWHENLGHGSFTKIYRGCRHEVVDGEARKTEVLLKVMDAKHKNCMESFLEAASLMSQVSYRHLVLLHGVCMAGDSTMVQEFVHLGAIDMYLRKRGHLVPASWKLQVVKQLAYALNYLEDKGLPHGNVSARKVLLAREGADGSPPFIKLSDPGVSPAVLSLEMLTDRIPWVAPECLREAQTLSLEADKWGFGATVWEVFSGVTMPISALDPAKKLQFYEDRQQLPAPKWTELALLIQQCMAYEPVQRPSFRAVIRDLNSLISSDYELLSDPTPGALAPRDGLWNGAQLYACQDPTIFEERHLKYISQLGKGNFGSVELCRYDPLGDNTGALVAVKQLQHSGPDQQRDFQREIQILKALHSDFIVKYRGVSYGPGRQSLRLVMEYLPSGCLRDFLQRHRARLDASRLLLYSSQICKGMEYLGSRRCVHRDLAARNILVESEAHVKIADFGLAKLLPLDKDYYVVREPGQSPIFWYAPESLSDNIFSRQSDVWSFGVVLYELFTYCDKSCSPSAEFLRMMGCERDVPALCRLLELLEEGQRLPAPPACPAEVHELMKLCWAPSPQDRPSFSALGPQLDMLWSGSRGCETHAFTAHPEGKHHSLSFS

`CN(c1ncnc2[nH]ccc12)[C@H]1CN(C(=O)CC#N)CC12CC2` [Example 5, (R)-3-(7-(methyl(7H-pyrrolo[2,3-d]pyrimidin-4-yl)amino)-5-azaspiro[2.4]heptan-5-yl)-3-oxopropanenitrile]: the negative logarithm of the IC50 (pIC50) in assay [1] was 8.07; in assay [3] it was 6.60; in assay [4] it was 5.96; in assay [5], 6.38. Also, the “JAK1 inhibitory activity relative to the racemic mixture (Example 55)” value in assay [1] (from IC50 values 8.5 nM vs 29.3 nM) is given as “about 3.5 fold”. The “inhibition of hind paw edema as compared to the control group” value in [2] (49th day after the first immunization (end of measurement)) was “about 64%”; in assay [2] (from the 31st day after the first immunization onwards) it was at least 60%. Also, the inhibition at 1 µM is 82% in assay [6], 79% in assay [7], 95% in assay [8] and 50% in assay [9].

What is called pIC50 is the negative decadic logarithm of the IC50, by convention in mol/L. A high value points to a small IC50. A word on the inhibition: it is the relative decrease from the control value, in per cent.
